Results published in ChEMBL document CHEMBL1201862, “PubChem BioAssay data set” (2004).
Blank lines part the entries; values can stand above or below the compound they belong to. Active and inactive are the calls of the source.

Assays:
[1] = target: Proto-oncogene tyrosine-protein kinase receptor Ret (Homo sapiens, UniProt P07949); type: functional;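 note: measured within a kinome-wide profiling panel, RET as the panel member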
[2] = target: Protein kinase C delta type (Homo sapiens, UniProt Q05655); type: functional
[3] = target: Dual specificity tyrosine-phosphorylation-regulated kinase 4 (Homo sapiens, UniProt Q9NR20); type: functional
[4] = target: Calcium/calmodulin-dependent protein kinase type 1 (Homo sapiens, UniProt Q14012); type: functional
[5] = target: Tyrosine-protein kinase ABL1 (Homo sapiens, UniProt P00519); type: functional
[6] = target: 5'-AMP-activated protein kinase catalytic subunit alpha-1 (Homo sapiens, UniProt Q13131); type: functional
[7] = target: Activin receptor type-1 (Homo sapiens, UniProt Q04771); assay: Navigating the Kinome. Panel member name: ACVR1; type: functional
[8] = target: MAP kinase-activated protein kinase 3 (Homo sapiens, UniProt Q16644); type: functional;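 note: value comes from a kinome-wide profiling panel in which MAPKAPK3 is one of the panel members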
[9] = target: RAC-gamma serine/threonine-protein kinase (Homo sapiens, UniProt Q9Y243); type: functional
[10] = target: Glycogen synthase kinase-3 beta (Homo sapiens, UniProt P49841); type: functional;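 note: value comes from a broad kinome profiling panel, with GSK3B as the panel member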
[11] = target: 3-phosphoinositide-dependent protein kinase 1 (Homo sapiens, UniProt O15530); type: functional;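 note: value comes from the Navigating the Kinome panel, PDPK1 member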
[12] = target: Leukocyte tyrosine kinase receptor (Homo sapiens, UniProt P29376); assay: Navigating the Kinome. Panel member name: LTK; type: functional
[13] = target: Receptor-type tyrosine-protein kinase FLT3 (Homo sapiens, UniProt P36888); type: functional;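 note: FLT3 was tested as one member of a kinome-wide kinase panel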
[14] = target: Tyrosine-protein kinase Blk (Homo sapiens, UniProt P51451); type: functional;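 note: obtained as one member of a kinome-wide kinase assay panel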
[15] = target: Tyrosine-protein kinase SYK (Homo sapiens, UniProt P43405); type: functional
[16] = target: Death-associated protein kinase 3 (Homo sapiens, UniProt O43293); type: functional;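 note: measured as one member of a kinome-wide profiling panel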
[17] = target: Serine/threonine-protein kinase BRSK1 (Homo sapiens, UniProt Q8TDC3); type: functional;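 note: measured within a kinome-wide kinase panel, with the target listed as KIAA1811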
[18] = target: Serine/threonine-protein kinase TAO1 (Homo sapiens, UniProt Q7L7X3); type: functional
[19] = target: Tyrosine-protein kinase Fyn (Homo sapiens, UniProt P06241); type: functional
[20] = target: Testis-specific serine/threonine-protein kinase 2 (Homo sapiens, UniProt Q96PF2); type: functional;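 note: part of the Navigating the Kinome panel, target entry STK22B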
[21] = target: Cell division cycle 7-related protein kinase (Homo sapiens, UniProt O00311); type: functional;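 note: value obtained from a kinome-wide kinase panel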
[22] = target: MAP kinase-activated protein kinase 5 (Homo sapiens, UniProt Q8IW41); type: functional;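 note: measured as one member of a kinome panel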
[23] = target: Rho-associated protein kinase 1 (Homo sapiens, UniProt Q13464); type: functional;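 note: measured within a broad kinome-wide panel profiling many kinases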
[24] = target: T1, Mannose-6-phosphate isomerase (Homo sapiens, UniProt P34949); assay: MPI enzyme activity inhibition – biochemical, fluorescence intensity, coupled assay, primary screen (AID 1209)
T1 sequence (P34949 whole entry): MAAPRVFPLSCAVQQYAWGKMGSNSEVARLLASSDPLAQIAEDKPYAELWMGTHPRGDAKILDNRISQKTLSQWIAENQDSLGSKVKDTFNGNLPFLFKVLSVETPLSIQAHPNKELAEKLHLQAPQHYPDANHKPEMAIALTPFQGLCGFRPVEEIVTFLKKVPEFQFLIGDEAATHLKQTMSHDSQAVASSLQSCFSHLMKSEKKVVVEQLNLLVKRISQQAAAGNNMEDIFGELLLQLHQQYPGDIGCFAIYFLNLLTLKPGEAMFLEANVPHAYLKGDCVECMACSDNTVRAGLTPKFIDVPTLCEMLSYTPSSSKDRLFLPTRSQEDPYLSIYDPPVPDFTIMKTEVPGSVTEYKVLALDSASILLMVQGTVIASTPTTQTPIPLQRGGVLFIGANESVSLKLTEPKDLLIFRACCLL

[25] = target: SUMO-activating enzyme (Homo sapiens, UniProt Q9UBT2); assay: blockers of SAE1/SAE2–UBC9 SUMO transfer – biochemical, HTRF, uHTS, primary screen (AID 2006); type: protein-complex assay

Dual specificity tyrosine-phosphorylation-regulated kinase 4, sequence (Q9NR20 whole entry): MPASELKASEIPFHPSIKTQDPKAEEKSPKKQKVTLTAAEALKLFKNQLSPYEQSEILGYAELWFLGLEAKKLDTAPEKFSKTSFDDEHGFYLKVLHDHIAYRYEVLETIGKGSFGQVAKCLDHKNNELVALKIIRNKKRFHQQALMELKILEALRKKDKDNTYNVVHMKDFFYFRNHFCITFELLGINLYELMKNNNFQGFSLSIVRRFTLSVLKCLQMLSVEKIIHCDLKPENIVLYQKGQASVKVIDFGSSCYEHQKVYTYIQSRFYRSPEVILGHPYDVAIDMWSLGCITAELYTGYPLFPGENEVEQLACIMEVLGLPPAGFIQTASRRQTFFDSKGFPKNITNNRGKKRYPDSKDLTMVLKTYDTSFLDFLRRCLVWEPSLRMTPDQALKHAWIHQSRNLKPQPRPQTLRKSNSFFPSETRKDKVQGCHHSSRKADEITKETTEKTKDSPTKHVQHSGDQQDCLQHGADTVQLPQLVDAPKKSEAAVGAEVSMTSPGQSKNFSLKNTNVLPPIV
Serine/threonine-protein kinase TAO1, sequence (Q7L7X3 whole entry): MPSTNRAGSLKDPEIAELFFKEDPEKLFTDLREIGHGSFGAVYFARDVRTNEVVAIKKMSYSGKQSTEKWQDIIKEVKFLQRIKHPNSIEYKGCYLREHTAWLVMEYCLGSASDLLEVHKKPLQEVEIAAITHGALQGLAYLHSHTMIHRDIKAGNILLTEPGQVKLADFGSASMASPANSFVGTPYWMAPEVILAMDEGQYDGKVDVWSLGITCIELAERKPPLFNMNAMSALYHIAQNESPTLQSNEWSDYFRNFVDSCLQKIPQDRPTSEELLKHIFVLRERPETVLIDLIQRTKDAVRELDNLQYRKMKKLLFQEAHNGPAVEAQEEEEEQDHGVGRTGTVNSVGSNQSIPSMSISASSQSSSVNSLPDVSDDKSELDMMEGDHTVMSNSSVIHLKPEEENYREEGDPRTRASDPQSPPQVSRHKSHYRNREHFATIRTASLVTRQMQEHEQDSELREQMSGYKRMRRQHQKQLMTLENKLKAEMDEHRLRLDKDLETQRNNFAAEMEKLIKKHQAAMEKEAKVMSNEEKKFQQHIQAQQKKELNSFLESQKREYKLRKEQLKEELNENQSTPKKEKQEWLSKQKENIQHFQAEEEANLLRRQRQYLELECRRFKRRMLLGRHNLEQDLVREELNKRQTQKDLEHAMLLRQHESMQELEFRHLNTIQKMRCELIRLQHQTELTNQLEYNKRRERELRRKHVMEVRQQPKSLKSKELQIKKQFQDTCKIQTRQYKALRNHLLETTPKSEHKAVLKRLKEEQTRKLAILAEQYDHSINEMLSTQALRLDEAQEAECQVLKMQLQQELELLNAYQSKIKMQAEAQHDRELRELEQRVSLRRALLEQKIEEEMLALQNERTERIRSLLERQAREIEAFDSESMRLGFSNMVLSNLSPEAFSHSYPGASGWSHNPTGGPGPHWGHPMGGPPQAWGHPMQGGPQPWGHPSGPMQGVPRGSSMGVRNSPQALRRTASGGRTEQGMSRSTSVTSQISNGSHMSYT
Activin receptor type-1, sequence (Q04771 whole entry): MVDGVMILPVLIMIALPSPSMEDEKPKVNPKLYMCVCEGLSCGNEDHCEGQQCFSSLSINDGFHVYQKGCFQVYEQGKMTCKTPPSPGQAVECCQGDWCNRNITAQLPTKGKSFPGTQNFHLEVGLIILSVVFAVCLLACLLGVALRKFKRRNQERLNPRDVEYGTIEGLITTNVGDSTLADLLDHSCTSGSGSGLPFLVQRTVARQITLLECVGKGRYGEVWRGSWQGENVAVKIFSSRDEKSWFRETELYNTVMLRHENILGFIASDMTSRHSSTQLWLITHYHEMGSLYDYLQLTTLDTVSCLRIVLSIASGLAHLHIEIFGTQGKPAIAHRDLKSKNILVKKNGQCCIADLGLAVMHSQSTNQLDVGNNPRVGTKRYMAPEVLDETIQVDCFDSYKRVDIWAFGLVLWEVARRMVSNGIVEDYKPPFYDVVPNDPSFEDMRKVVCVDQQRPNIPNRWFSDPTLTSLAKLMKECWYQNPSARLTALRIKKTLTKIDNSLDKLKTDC
Proto-oncogene tyrosine-protein kinase receptor Ret, sequence (P07949 whole entry): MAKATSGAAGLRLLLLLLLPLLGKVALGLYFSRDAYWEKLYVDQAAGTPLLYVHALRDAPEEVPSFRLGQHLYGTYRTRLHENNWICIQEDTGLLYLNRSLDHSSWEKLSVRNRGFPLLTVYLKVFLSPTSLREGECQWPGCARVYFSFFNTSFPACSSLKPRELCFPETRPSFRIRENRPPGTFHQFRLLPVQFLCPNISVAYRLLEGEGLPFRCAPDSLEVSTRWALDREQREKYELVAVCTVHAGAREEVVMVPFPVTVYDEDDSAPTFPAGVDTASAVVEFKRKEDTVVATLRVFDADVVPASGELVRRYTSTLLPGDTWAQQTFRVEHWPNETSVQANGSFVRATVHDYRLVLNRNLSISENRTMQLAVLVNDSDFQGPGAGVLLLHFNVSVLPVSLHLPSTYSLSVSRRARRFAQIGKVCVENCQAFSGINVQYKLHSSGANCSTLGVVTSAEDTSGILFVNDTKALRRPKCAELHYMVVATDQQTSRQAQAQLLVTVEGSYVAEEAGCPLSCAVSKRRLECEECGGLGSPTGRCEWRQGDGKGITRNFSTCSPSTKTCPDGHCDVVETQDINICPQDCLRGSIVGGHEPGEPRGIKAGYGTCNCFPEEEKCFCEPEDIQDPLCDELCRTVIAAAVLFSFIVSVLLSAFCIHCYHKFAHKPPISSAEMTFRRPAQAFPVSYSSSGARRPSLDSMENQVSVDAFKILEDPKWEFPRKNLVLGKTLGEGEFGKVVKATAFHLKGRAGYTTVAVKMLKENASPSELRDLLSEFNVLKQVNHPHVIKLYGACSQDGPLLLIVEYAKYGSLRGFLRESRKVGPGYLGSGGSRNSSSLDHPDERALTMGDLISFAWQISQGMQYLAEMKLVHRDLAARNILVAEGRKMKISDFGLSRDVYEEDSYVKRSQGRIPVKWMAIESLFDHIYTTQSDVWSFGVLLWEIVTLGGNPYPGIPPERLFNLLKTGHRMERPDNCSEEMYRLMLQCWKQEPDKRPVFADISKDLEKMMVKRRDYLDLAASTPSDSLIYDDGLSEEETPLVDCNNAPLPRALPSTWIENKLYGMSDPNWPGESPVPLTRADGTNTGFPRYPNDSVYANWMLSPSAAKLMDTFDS
Testis-specific serine/threonine-protein kinase 2, sequence (Q96PF2 whole entry): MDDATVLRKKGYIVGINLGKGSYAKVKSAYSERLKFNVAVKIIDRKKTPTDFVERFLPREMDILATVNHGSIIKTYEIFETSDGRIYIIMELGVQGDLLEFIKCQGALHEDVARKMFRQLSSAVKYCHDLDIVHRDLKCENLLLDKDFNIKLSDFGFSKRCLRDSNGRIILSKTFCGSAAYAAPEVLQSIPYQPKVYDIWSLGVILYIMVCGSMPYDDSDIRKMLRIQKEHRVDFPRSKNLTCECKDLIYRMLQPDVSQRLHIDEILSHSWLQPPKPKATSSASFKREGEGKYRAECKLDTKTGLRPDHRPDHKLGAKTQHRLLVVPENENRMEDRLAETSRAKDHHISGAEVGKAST
MAP kinase-activated protein kinase 5, sequence (Q8IW41 whole entry): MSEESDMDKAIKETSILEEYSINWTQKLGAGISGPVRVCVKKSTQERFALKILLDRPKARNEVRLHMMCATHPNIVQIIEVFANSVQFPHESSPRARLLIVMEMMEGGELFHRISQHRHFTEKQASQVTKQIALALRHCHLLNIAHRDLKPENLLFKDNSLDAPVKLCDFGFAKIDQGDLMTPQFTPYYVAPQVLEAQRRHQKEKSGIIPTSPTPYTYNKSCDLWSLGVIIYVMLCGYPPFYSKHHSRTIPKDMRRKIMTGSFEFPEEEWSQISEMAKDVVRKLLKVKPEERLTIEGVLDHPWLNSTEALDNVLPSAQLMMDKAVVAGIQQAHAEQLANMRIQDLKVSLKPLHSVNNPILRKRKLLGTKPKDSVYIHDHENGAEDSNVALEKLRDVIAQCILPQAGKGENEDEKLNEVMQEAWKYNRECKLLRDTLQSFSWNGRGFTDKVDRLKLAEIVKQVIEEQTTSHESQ
Cell division cycle 7-related protein kinase, sequence (O00311 whole entry): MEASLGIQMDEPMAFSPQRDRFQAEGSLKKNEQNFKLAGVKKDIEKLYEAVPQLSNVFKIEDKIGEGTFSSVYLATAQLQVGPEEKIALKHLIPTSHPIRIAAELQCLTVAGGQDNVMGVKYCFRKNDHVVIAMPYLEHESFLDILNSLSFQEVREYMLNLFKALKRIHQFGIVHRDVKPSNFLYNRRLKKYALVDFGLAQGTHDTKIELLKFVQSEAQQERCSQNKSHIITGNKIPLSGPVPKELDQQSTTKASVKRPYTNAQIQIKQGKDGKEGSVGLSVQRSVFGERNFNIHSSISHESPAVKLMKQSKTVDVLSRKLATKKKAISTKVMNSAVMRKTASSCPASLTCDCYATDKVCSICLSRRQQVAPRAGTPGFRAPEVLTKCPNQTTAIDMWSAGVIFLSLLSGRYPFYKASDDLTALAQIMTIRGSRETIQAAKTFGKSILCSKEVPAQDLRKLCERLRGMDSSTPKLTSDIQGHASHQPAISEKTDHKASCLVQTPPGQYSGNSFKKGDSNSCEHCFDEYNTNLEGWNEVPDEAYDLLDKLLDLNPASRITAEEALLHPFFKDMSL
Glycogen synthase kinase-3 beta, sequence (P49841 whole entry): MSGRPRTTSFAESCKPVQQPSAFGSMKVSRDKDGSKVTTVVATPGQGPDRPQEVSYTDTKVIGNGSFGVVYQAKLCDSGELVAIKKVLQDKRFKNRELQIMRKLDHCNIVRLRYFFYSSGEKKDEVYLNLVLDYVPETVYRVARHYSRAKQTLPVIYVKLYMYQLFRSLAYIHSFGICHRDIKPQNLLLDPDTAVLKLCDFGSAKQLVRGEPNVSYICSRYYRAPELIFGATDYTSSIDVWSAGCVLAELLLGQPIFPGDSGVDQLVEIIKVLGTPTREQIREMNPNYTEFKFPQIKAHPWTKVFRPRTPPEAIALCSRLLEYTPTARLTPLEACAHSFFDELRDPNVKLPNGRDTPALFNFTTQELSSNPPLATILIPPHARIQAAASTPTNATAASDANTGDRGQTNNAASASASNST

Ki [1]: > 2 µM (inactive)
Ki [2]: > 7.94 µM (inactive)
Ki [3]: 0.501 µM (active)
Ki [4]: > 6.31 µM (inactive)
Ki [5]: > 0.631 µM (inactive)
Ki [6]: > 2 µM (inactive)
Ki [7]: > 3.98 µM (inactive)
Ki [8]: > 10 µM (inactive)
Ki [9]: > 10 µM (inactive)
Ki [10]: > 1 µM (inactive)
Ki [11]: > 3.98 µM (inactive)
Ki [12]: > 2.51 µM (inactive)
Ki [13]: > 1 µM (inactive)
Ki [14]: > 1.58 µM (inactive)
Ki [15]: > 1.58 µM (inactive)
Ki [17]: > 10 µM (inactive)
Ki [18]: > 7.94 µM (inactive)
Ki [19]: > 0.794 µM (inactive)
Ki [20]: > 1.58 µM (inactive)
Ki [21]: 0.000501 µM (active)
Ki [22]: > 1.58 µM (inactive)
Ki [23]: 0.0158 µM (active)
SMILES: Clc1cc(-c2c[nH]c3ncccc23)nc(NC2CCCCC2)n1
Ki [16]: 0.501 µM (active)

SMILES: CC(C)N(C(=O)Nc1ccc2nsnc2c1)C(C)C
IC50 [24]: > 50 µM (not active)

SMILES: NS(=O)(=O)c1ccc(NC2=CC(=O)C(=O)c3ccccc32)cc1
IC50 [25]: 9.54 µM (active)
